Holding throughout (type): biochemical
Assay [1] deals with T1, 20S proteasome β5 subunit (chymotrypsin-like activity) (Homo sapiens, UniProt P28074).
T1 construct: gene PSMB5; whole human 20S proteasome (Biomol); with other subunits of the 20S proteasome
T1 sequence (P28074 60-263): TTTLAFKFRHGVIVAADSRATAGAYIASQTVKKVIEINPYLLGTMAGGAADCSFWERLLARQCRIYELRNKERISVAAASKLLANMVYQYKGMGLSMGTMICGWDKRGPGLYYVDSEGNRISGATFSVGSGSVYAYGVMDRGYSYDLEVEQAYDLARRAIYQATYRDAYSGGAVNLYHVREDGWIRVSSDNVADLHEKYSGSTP
The assay is described as follows: fluorometric ChT-L screening assay, % inhibition at […]. To be noted: read-out: ChT-L Activity (% Inhibition at 20 μM) ^1.

The target in assay [2] is T1, 20S proteasome β5 subunit (chymotrypsin-like activity). Description: fluorometric ChT-L assay with Suc-LLVY-AMC, continuous; IC50 […], Ki by Cheng-Prusoff.
Assay [3] shares this target. Described as above. The source holds these as a separate data set.

Read-outs that look alike come from different tables or passages of the source.

The term inhibition denotes how much of the control response was suppressed. Turning to `N#Cc1ccc(N2CC2(Cl)C(F)(F)F)cc1` (centres unmarked) [compound 18, CTMA 18], in assay [1], the inhibition at 20 µM was 37 ± 0.5%.
As a reminder, the Ki is a dissociation constant, usually derived from enzyme kinetics or from competition with a known ligand. Low readings indicate tighter binding, high ones weaker binding. In turn, `FC(F)(F)C1(Cl)CN1c1ccc2cc3ccccc3cc2c1` (centres unmarked) [compound 21, CTMA 21] yielded a Ki in assay [2] of 1.6 ± 0.13 µM.
`FC(F)(F)C1(Cl)CN1c1ccc(N=Nc2ccccc2)cc1` (centres unmarked) [compound 22, CTMA 22] registered a Ki in assay [3] of 1.6 ± 0.08 µM.
With `FC(F)(F)C1(Cl)CN1c1ccc(N2CCOCC2)cc1` (centres unmarked) [compound 23, CTMA 23], the inhibition at 20 µM in assay [1] turned out to be 41 ± 1.2%.
Regarding `O=C1CCCN1c1cccc(N2CC2(Cl)C(F)(F)F)c1` (centres unmarked) [compound 25, CTMA 25], the inhibition at 20 µM in assay [1] amounted to 34 ± 1.4%.
